From PubChem BioAssay (NCI) come the findings set out here.

Each structure is given as a SMILES string. Several values for one entry are separate records, joined by “and”; a condition that tells them apart may be missing. Identical values can stand only once.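 Cultured in 96-well plates, cells were exposed to test compound for 48 hours across five concentrations. Here, GI50 denotes the concentration required for 50% inhibition of growth. The concentration for full growth arrest is given as TGI.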

Among the test systems are SN12C renal; OVCAR-3 ovarian; NCI-H23 lung; MCF7 breast; UACC-62 melanoma; A498 renal; COLO 205 colon; SF-539 CNS; UACC-257 melanoma; MALME-3M melanoma.
Common to all, as to assay: inhibition of tumour cell growth, NCI panel, 48 h

Consider `CC1=CC[C@@H]2[C@@H](CC[C@@]2(C)O)C(C)(C)[C@H]1CC[C@@H]1[C@@]2(C)CCC(=O)C(C)(C)O[C@@H]2CC[C@]1(C)O`, for which the TGI in the assay with SN12C renal was 42.3 µM; in the assay on OVCAR-3 ovarian, greater than 100 µM; in the assay with NCI-H23 lung, greater than 100 µM; with MCF7 breast, greater than 100 µM; in the assay with UACC-62 melanoma, 34.9 µM; with A498 renal, 73 µM. The TGI in the assay with COLO 205 colon is 55.8 µM; with SF-539 CNS, 36.5 µM; in the assay on UACC-257 melanoma, greater than 100 µM.
As for `O=C1c2ccn(CCCCN3CCOCC3)c2C(=O)c2c1c(O)c1ccccc1c2O`, the GI50 in the assay with SN12C renal was 11.4 µM; in the assay on OVCAR-3 ovarian, 1.62 µM; in the assay on NCI-H23 lung, 11.4 µM; in the assay on MCF7 breast it was 6.26 µM; in the assay on A498 renal it was 19.3 µM; with COLO 205 colon, 5.69 µM. Moreover, the GI50 in the assay on UACC-257 melanoma was 8.43 µM. In addition, the TGI was 24 µM with SN12C renal; 8.77 µM with OVCAR-3 ovarian; 23.6 µM with NCI-H23 lung; 24.8 µM in the assay on MCF7 breast; greater than 100 µM in the assay with A498 renal; 34 µM in the assay on COLO 205 colon. Also, the TGI with UACC-257 melanoma stood at 27.4 µM.
Turning to `CCCOC(=O)N[C@H]1CCc2c(Br)c(OC)c(OC)c(OC)c2-c2ccc(SC)c(=O)cc21`, the GI50 in the assay on MALME-3M melanoma was 0.0348 µM; with SN12C renal, 0.0437 µM; in the assay on OVCAR-3 ovarian, 0.0319 µM; in the assay with NCI-H23 lung, 0.0348 µM; in the assay on MCF7 breast it was less than 0.01 µM; in the assay on UACC-62 melanoma, 0.0365 µM. In addition, the GI50 in the assay with A498 renal was less than 0.0135 µM; in the assay with SF-539 CNS, 0.0213 µM; in the assay with UACC-257 melanoma, 5.02 µM. The TGI in the assay on MALME-3M melanoma is 27.2 µM; with SN12C renal, 17.3 µM; in the assay on OVCAR-3 ovarian it was 10.4 µM; in the assay with NCI-H23 lung it was greater than 57.3 µM; with MCF7 breast, 12.2 µM; in the assay on UACC-62 melanoma, 13.2 µM. The TGI with A498 renal was 0.0509 µM; with SF-539 CNS it was 0.0688 µM; with UACC-257 melanoma it was 32.6 µM.
Consider `OCCN1CCN(CCCN2c3ccccc3Sc3ccc(C(F)(F)F)cc32)CC1`, for which the GI50 is 4.49 µM and 11.4 µM and 7.83 µM in the assay with SN12C renal; 4.34 µM and 12.4 µM in the assay with OVCAR-3 ovarian; 5.2 µM and 11.6 µM and 10.5 µM with NCI-H23 lung; 1.2 µM and 6.8 µM and 7.74 µM with MCF7 breast; 0.824 µM and 2.48 µM and 2.08 µM in the assay with UACC-62 melanoma; 2.28 µM and 9.65 µM and 10.4 µM in the assay on A498 renal. The GI50 is 0.795 µM and 2.17 µM and 1.93 µM in the assay on COLO 205 colon; 4.88 µM and 10.8 µM and 9.77 µM in the assay with SF-539 CNS; 0.863 µM and 2.01 µM and 1.96 µM in the assay on UACC-257 melanoma. The TGI in the assay on SN12C renal is 11.4 µM and 26.7 µM and 21.8 µM; with OVCAR-3 ovarian it was 10.6 µM and 25.5 µM; in the assay with NCI-H23 lung, 12 µM and 24.5 µM and 24.1 µM; in the assay on MCF7 breast it was 2.92 µM and 22.6 µM and 25.1 µM; with UACC-62 melanoma, 1.62 µM and 6.83 µM and 4.44 µM; with A498 renal, 10.3 µM and 23.4 µM and 28.1 µM. Further, the TGI was 1.53 µM and 4.46 µM and 3.59 µM in the assay on COLO 205 colon; 11.3 µM and 26.9 µM and 23.6 µM with SF-539 CNS; 1.74 µM and 4.97 µM and 4.19 µM with UACC-257 melanoma.
Regarding `COc1ccc2c(c1)Oc1nc(N)c(C#N)c(N)c1C2Sc1ccc(SC)cc1` (stereo not given), the GI50 with MALME-3M melanoma is 1.78 µM; in the assay on SN12C renal, 1.64 µM; in the assay on OVCAR-3 ovarian, 1.75 µM; with MCF7 breast, 1.83 µM; with UACC-62 melanoma, 1.81 µM; in the assay on A498 renal it was 1.77 µM. Also, the GI50 in the assay with COLO 205 colon is 1.85 µM; with SF-539 CNS, 1.72 µM; in the assay with UACC-257 melanoma it was 1.9 µM. In addition, the TGI was determined as 3.35 µM with MALME-3M melanoma; 3.06 µM in the assay with SN12C renal; 3.19 µM in the assay on OVCAR-3 ovarian; 4.5 µM in the assay on MCF7 breast; 3.33 µM in the assay with UACC-62 melanoma; 3.3 µM in the assay on A498 renal. The TGI with COLO 205 colon was 3.6 µM; in the assay on SF-539 CNS, 3.11 µM; in the assay with UACC-257 melanoma, 3.38 µM.
Consider `CCN(CC)c1ccc(NC(C(=O)c2ccccc2)c2ccccc2)cc1` (stereo not given), for which the GI50 in the assay with MALME-3M melanoma is 2.76 µM; with OVCAR-3 ovarian, 3.05 µM; in the assay on NCI-H23 lung, 2.15 µM; in the assay with MCF7 breast, 2.23 µM; with UACC-62 melanoma it was 1.92 µM; in the assay on A498 renal it was 2.71 µM. The values for the GI50 with COLO 205 colon, in the assay on SF-539 CNS and with UACC-257 melanoma were 3.41 µM, 2.11 µM and 4.86 µM, respectively. In addition, the TGI in the assay on MALME-3M melanoma is 7.44 µM; with OVCAR-3 ovarian, 8.15 µM; with NCI-H23 lung it was 4.67 µM; with MCF7 breast it was 16.6 µM; in the assay with UACC-62 melanoma, 4.09 µM; in the assay with A498 renal, 10.1 µM. Also, the results for the TGI with COLO 205 colon, in the assay with SF-539 CNS and with UACC-257 melanoma were 11.9 µM, 4.98 µM and 22.1 µM, respectively.
As to `O=c1/c(=C/c2cccc3ccccc23)sc2nc3ccccc3n12`, the TGI in the assay with MALME-3M melanoma, with SN12C renal, in the assay with OVCAR-3 ovarian, with NCI-H23 lung, in the assay on UACC-62 melanoma and in the assay with A498 renal was greater than 100 µM each time. Moreover, the TGI with COLO 205 colon, in the assay with SF-539 CNS and in the assay with UACC-257 melanoma was greater than 100 µM each time.
Turning to `COc1ccc(-c2cc3c4c(nc5ccccc5c4c2)CC(c2cc(OC)c(OC)c(OC)c2)O3)cc1` (stereo not given), the GI50 in the assay with MALME-3M melanoma is 1.32 µM; in the assay on SN12C renal, 2.75 µM; in the assay on OVCAR-3 ovarian, 1.86 µM; with NCI-H23 lung, 3.75 µM; with MCF7 breast, 2.36 µM; with UACC-62 melanoma, 3.54 µM. Moreover, the figures for the GI50 with A498 renal, with SF-539 CNS and in the assay on UACC-257 melanoma were 3.39 µM, 1.44 µM and 3.93 µM, respectively. For the same compound, the TGI in the assay with MALME-3M melanoma was 3.87 µM; in the assay with SN12C renal it was greater than 100 µM; with OVCAR-3 ovarian, 4.28 µM; in the assay with NCI-H23 lung it was 18.5 µM; in the assay on MCF7 breast it was 79.5 µM; with UACC-62 melanoma it was 20.1 µM. Moreover, the TGI is 13.4 µM in the assay on A498 renal, 2.95 µM in the assay on SF-539 CNS and greater than 100 µM in the assay on UACC-257 melanoma.
Consider `[Cu+2].[Cu+2].[O-]c1ccccc1C=Nc1ccccc1[O-].[O-]c1ccccc1C=Nc1ccccc1[O-]`, for which the GI50 in the assay on MALME-3M melanoma is 13.7 µM; in the assay on SN12C renal, 13.7 µM; in the assay on OVCAR-3 ovarian, 5.56 µM; in the assay with NCI-H23 lung, 1.96 µM; with UACC-62 melanoma it was 3.55 µM; in the assay on A498 renal it was 14.4 µM. Further, the GI50 in the assay on COLO 205 colon is 2.26 µM; in the assay on SF-539 CNS, 13.2 µM; with UACC-257 melanoma, 10.4 µM. In addition, the TGI was 27.3 µM with MALME-3M melanoma; 27.3 µM with SN12C renal; 15.8 µM with OVCAR-3 ovarian; 4.85 µM in the assay with NCI-H23 lung; 14 µM with UACC-62 melanoma; 28.1 µM in the assay with A498 renal. Besides, the TGI in the assay on COLO 205 colon is 5.11 µM; in the assay on SF-539 CNS it was 25.9 µM; with UACC-257 melanoma it was 22.3 µM.
